No end group written: not given here.
Legend:
[1] = test system: Pseudomonas aeruginosa and Staphylococcus aureus; test: MBC assay, antibacterial activity of Romo1-derived peptides compared in words; assay type: cell-based; details: Table 1 peptides
From the text: Romo1 protein comprises two α-helices. The present inventors synthesized the α-helix 2 region having both hydrophilicity and hydrophobicity, and evaluated the antibacterial activity thereof using minimum bactericidal concentration (MBC) assay. The α-helix 2 region was named KU-5279 (the 52-79 amino acid region of Romo1 protein). Then, in order to identify peptides that are beneficial for human application and have excellent antibacterial activity, the present inventors synthesized several peptides comprising a sequence of contiguous amino acids starting at any amino acid selected from the 52-79 amino acid region of Romo1 protein, and comparatively evaluated the antibacterial activities of the peptides by minimum bactericidal concentration assay (See Table 1 below for information on each peptide). Evaluation of the antibacterial activity of each peptide by minimum bactericidal concentration assay was specifically performed as follows. First, each of Pseudomonas aeruginosa (ATCC 27853) and Staphylococcus aureus (ATCC 29213) was cultured in 3% (w/v) TSB (Tryptic Soy Broth) liquid medium at 37° C. and 200 rpm for 4 hours, and then further cultured under the same conditions for 3 hours to a concentration of 5×10^6 CFU/ml. […]

[2] = Toxicity in vivo after intravenous injection; parameters: species or system mouse (C57BL/6); details: 100 mg/kg intravenous
Description: At this time, the maximum volume of the injection dose was 150 μl.

KTMMQSGGTFGTFMAIGMGIR [KU-5878]
antibacterial activity by MBC assay, in words [1]: three times better antibacterial activity than KU-5279 | survival of mice after injection ([2]; 12 days): all survived | effect on the weight of the mice ([2]; weights at 24-hour intervals for 12 days, FIG. 7): no effect on the weight of the mice

Reference: patent publication US12053506B2, “Romo1-derived antimicrobial peptides and variants thereof” (priority 2019, dated 2024)
